Laboratory results reported in US8609674B2, “Potassium channel modulators” (AbbVie Inc., priority 2010, dated 2013).

How the values were obtained:
[1] = molecular target: T1, human KCNQ2 and KCNQ3 subunits (KCNQ2/3 channels) (Homo sapiens, UniProt O43525+O43526); assay: KCNQ2/3 thallium influx FLIPR assay (BTC-AM dye); type: cell-based; settings: for EC50: HEK293 cells stably expressing human KCNQ2 and KCNQ3, Tl+ influx; for Emax: maximum response relative to 10 μM retigabine (=100%), read-out: KCNQ2/3 Max. %
T1 construct: expressed in transfected cells; host or cells: HEK293
Protocol: The following example describes the assay that may be used to identify compounds that activate KCNQ2/3 channels.
HEK293 cells stably expressing human KCNQ2 and KCNQ3 subunits were seeded in 96-well, black-walled, clear-bottomed, poly-D-lysine coated plates (BD Biosciences, Bedford, Mass.) at a density of 1×10^5 cells per well 24 hours before the assay. On the assay day, BTC-AM dye (Invitrogen, Carlsbad, Calif.) was loaded into the cells by replacing the cell culture medium with 55 μL/well of 3 μg/ml dye in Dulbecco's Phosphate Buffered Saline (DPBS) (Invitrogen). Dye loading was allowed to proceed for 2 hours at room temperature and then cells were washed twice with 50 μL/well of assay buffer (in mM: 10 HEPES pH 7.3, 5 glucose, 140 Na-gluconate, 2.5 K-gluconate, 3.6 Ca-gluconate, 2 MgSO4, 0.1 Ouabain) to remove unloaded dye. Cells were incubated in 50 μL of assay buffer before loading onto a FLIPR system (Molecular Devices, Sunnyvale, Calif.). Various concentrations of compounds to be assayed were added to the cells in 50 μL of assay buffer and incubated for 4 minutes. The fluorescence signal was initiated by adding 100 μL of assay buffer containing 6 mM TlNO3 and 10 mM K2SO4. Fluors were excited using the 488-nm line of an argon laser and emission was filtered using a 540±30 nm bandpass filter. Fluorescent signals were recorded for 3 minutes. Sums of the responses over basal responses were plotted versus concentrations of test compounds to obtain an EC50 value and the points fit with a nonlinear regression curve using GraphPad Prism software (GraphPad Software Inc., San Diego, Calif.). EC50 values were calculated from the resulting sigmoidal dose-response curves. The maximum response for each test compound was determined relative to the response produced by 10 μM retigabine. The maximum response of retigabine at 10 μM was set at 100%.

[2] = test system: capsaicin-induced secondary mechanical hyperalgesia; assay: Capsaicin-induced secondary mechanical hypersensitivity; type: in vivo, Sprague-Dawley rats; settings: rat, about 30 mg/kg i.p., 30 min before testing, 180 min after capsaicin
Description: (§1) Adult male Sprague-Dawley rats (250-300 g body weight, Charles River Laboratories, Portage, Mich.) were used. Animal handling and experimental protocols were approved by the Institutional Animal Care and Use Committee (IACUC) at Abbott Laboratories. For all surgical procedures, animals were maintained under isoflurane anesthesia (4-5% to induce, 1-3% to maintain), and the incision sites were sterilized using a 10% povidone-iodine solution prior to and after surgeries.
Rats were allowed to acclimate to the study room for 1 hour. They were then briefly restrained, and capsaicin was administered at 10 μg in 10 μl of vehicle (10% ethanol and 2-hydroxypropyl cyclodextrin) by intraplantar injection into the center of the right hind paw. Secondary mechanical hyperalgesia was measured at the heel away from the site of injection at 180 min following capsaicin (Joshi et al 2006, Neuroscience 143, 587-596). Compounds were injected (i.p.) 30 min before testing (150 min post-capsaicin).
(§2) Tactile (mechanical) allodynia was measured using calibrated von Frey filaments (Stoelting, Wood Dale, Ill.) as described in Chaplan, S. R., F. W. Bach, J. M. Pogrel, J. M. Chung and T. L. Yaksh, 1994, Quantitative assessment of tactile allodynia in the rat paw, J. Neurosci. Methods, 53, 55. Rats were placed into inverted individual plastic containers (20×12.5×20 cm) on top of a suspended wire mesh grid, and acclimated to the test chambers for 20 minutes. […] A 50% withdrawal threshold was determined using an up-down procedure (Dixon, W. J., 1980, Efficient analysis of experimental observations, Ann. Rev. Pharmacol. Toxicol., 20, 441). […] Tactile allodynia thresholds were also assessed in several control groups, including naive, sham-operated, and saline infused animals as well as in the contralateral paws of nerve-injured rats. To evaluate the anti-nociceptive effects, animals were administered vehicle or test compound and tactile allodynia was assessed 30 minutes after i.p. administration.
Tactile allodynia was measured as described above.

human KCNQ4 = molecular target: T2, human KCNQ4 (Homo sapiens, UniProt P56696); assay: KCNQ4 thallium influx FLIPR TETRA assay; type: cell-based; settings: for EC50: HEK293 cells stably expressing human KCNQ4, Tl+ influx; for Emax: maximum response relative to 10 μM retigabine (=100%), read-out: KCNQ4 Max. %
T2 construct: expressed in transfected cells; host or cells: HEK293
Protocol: (§3) The following example describes the assay that may be used to identify compounds that activate KCNQ4 or KCNQ5 channels.
(§4) The assays were performed using a FLIPR^TETRA (Molecular Devices, Sunnyvale, Calif.) in 384-well format. HEK293 cells stably expressing human KCNQ4 or KCNQ5 were seeded in 384-well, black-walled, clear-bottomed, poly-D-lysine coated plates (Greiner Bio-One, Germany) at a density of 1.5×10^4 cells per well, 24 hours before the assay. On the assay day, BTC-AM dye was loaded into the cells by replacing the cell culture medium with 30 μL/well of 2.8 μM dye in DPBS. Dye loading was allowed to proceed for 2 hours at room temperature and then cells were washed once in 30 μL/well of assay buffer (in mM: 10 HEPES pH 7.3, 5 glucose, 140 Na-gluconate, 2.5 K-gluconate, 3.6 Ca-gluconate, 2 MgSO4, 0.1 Ouabain) to remove unloaded dye. Cells were incubated in 30 μL of assay buffer before loading onto a FLIPR^TETRA system. Compounds to be assayed were added to the cells as 4× of final concentration in 15 μL of assay buffer and incubated for 4 minutes at room temperature. The influx signal was initiated by adding 15 μL of assay buffer containing 4.2 mM TlNO3 and 7 mM K2SO4. Tl^+ influx signals were recorded for 3 minutes. Tl^+ influx signal was quantified as light unit changes after Tl^+ addition using the “SUM” statistic from the FLIPR^TETRA software. Sums of the responses over basal responses were plotted versus concentrations of test compounds to obtain an EC50 value and the points fit with a nonlinear regression curve using GraphPad Prism software (GraphPad Software Inc., San Diego, Calif.). EC50 values were calculated from the resulting sigmoidal dose-response curves. The maximum response for each test compound was determined relative to the response produced by 10 μM retigabine. The maximum response of retigabine at 10 μM was set at 100%.

[3] = test system: spinal nerve ligation-induced neuropathic pain; assay: Spinal nerve ligation (SNL) model of neuropathic pain; type: in vivo, Sprague-Dawley rats; settings: rat SNL model, about 30 mg/kg i.p., 30 minutes or more before testing
Description: as §1
as §2, with “55.” for “55. Rats were placed into inverted individual plastic containers (20×12.5×20 cm) on top of a suspended wire mesh grid, and acclimated to the test chambers for 20 minutes.”, “administration. […]” for “administration.”

human KCNQ5 = molecular target: T3, human KCNQ5 (Homo sapiens, UniProt Q9NR82); assay: KCNQ5 thallium influx FLIPR TETRA assay; type: cell-based; settings: for EC50: HEK293 cells stably expressing human KCNQ5, Tl+ influx; for Emax: maximum response relative to 10 μM retigabine (=100%), read-out: KCNQ5 Max. %
T3 construct: expressed in transfected cells; host or cells: HEK293
Protocol: as §3, §4

[4] = test system: chronic constriction injury-induced neuropathic pain; assay: Chronic constriction injury (CCI) model of neuropathic pain (Bennett model); type: in vivo, Sprague-Dawley rats; settings: rat CCI model, about 30 mg/kg i.p., 30 minutes or more before testing
Description: as §1
as §2, with “55.” for “55. Rats were placed into inverted individual plastic containers (20×12.5×20 cm) on top of a suspended wire mesh grid, and acclimated to the test chambers for 20 minutes.”, “administration. […]” for “administration.”

| Structure (SMILES) | EC50 [1] [nM] | Emax [1] [%] | change in paw withdrawal latency versus vehicle (tactile allodynia) [2] | EC50 (human KCNQ4) [nM] | Emax (human KCNQ4) [%] | change in paw withdrawal latency versus vehicle (tactile allodynia) [3] | EC50 (human KCNQ5) [nM] | Emax (human KCNQ5) [%] | change in paw withdrawal latency versus vehicle (mechanical allodynia) [4] |
| --- | --- | --- | --- | --- | --- | --- | --- | --- | --- |
| CC(C)c1nc2ccccc2c(=O)n1NC(=O)C[C@@H]1CC[C@H]2C[C@@H]1C2(C)C [Example 1, 2-[(1S,2S,5S)-6,6-dimethylbicyclo[3.1.1]hept-2-yl]-N-[4-oxo-2-(propan-2-yl)quinazolin-3(4H)-yl]acetamide] | < 100 | 103 | statistically significant change in paw withdrawal latency versus vehicle | > 30000 | 22 | statistically significant change in paw withdrawal latency versus vehicle | > 30000 | 164 | statistically significant change in paw withdrawal latency versus vehicle |
| CCc1nc2ccccc2c(=O)n1NC(=O)C[C@@H]1CC[C@H]2C[C@@H]1C2(C)C [Example 2, 2-[(1S,2S,5S)-6,6-dimethylbicyclo[3.1.1]hept-2-yl]-N-(2-ethyl-4-oxoquinazolin-3(4H)-yl)acetamide] | 100 to 500 | 109 | statistically significant change in paw withdrawal latency versus vehicle | > 30000 | 22 |  | > 30000 | 294 |  |
| CC1(C)[C@H]2CC[C@@H](CC(=O)Nn3c(C4CC4)nc4ccccc4c3=O)[C@@H]1C2 [Example 5, N-(2-cyclopropyl-4-oxoquinazolin-3(4H)-yl)-2-[(1S,2S,5S)-6,6-dimethylbicyclo[3.1.1]hept-2-yl]acetamide] | < 100 | 93 | statistically significant change in paw withdrawal latency versus vehicle | > 30000 | 6 |  | > 30000 | 50 |  |
| CC1(C)[C@H]2CC[C@@H](CC(=O)Nn3c(C4CC4)nc4sccc4c3=O)[C@@H]1C2 [Example 15, N-(2-cyclopropyl-4-oxothieno[2,3-d]pyrimidin-3(4H)-yl)-2-[(1S,2S,5S)-6,6-dimethylbicyclo[3.1.1]hept-2-yl]acetamide] | 100 to 500 | 149 |  | > 30000 | 21 | statistically significant change in paw withdrawal latency versus vehicle | > 30000 | 210 |  |
| CC(C)c1nc2sccc2c(=O)n1NC(=O)C[C@@H]1CC[C@H]2C[C@@H]1C2(C)C [Example 20, 2-[(1S,2S,5S)-6,6-dimethylbicyclo[3.1.1]hept-2-yl]-N-[4-oxo-2-(propan-2-yl)thieno[2,3-d]pyrimidin-3(4H)-yl]acetamide] | 100 to 500 | 111 |  | 1000 to 10000 | 46 |  | > 30000 | 10 |  |
| CC(C)c1nc2ccccc2c(=O)n1NC(=O)C[C@H]1CC[C@H]2C[C@@H]1C2(C)C [Example 21, 2-[(1S,2R,5S)-6,6-dimethylbicyclo[3.1.1]hept-2-yl]-N-[4-oxo-2-(propan-2-yl)quinazolin-3(4H)-yl]acetamide] | 500 to 1000 | 121 |  | 500 to 1000 | 25 |  | > 30000 | 14 |  |
| CC(C)c1nc2ccccc2c(=O)n1NC(=O)C[C@H]1C[C@H]2C[C@@H](C1F)C2(C)C (stereo partly drawn) [Example 23, 2-[(1R,3R,5S)-2-fluoro-6,6-dimethylbicyclo[3.1.1]hept-3-yl]-N-[4-oxo-2-(propan-2-yl)quinazolin-3(4H)-yl]acetamide] | 100 to 500 | 155 |  | 100 to 500 | 229 |  | 100 to 500 | 633 |  |
| CC(C)c1nc2ccccc2c(=O)n1NC(=O)C[C@@H]1[C@H](F)C[C@H]2C[C@@H]1C2(C)C [Example 24, 2-[(1S,2S,3R,5R)-3-fluoro-6,6-dimethylbicyclo[3.1.1]hept-2-yl]-N-[4-oxo-2-(propan-2-yl)quinazolin-3(4H)-yl]acetamide] | < 100 | 25 |  | > 30000 | -43 |  | > 30000 | 88 |  |
| CC(C)c1nc2ccccc2c(=O)n1NC(=O)C[C@@H]1C[C@@H]2C[C@H](C1)C2(C)C [Example 25, 2-[(1R,3s,5S)-6,6-dimethylbicyclo[3.1.1]hept-3-yl]-N-[4-oxo-2-(propan-2-yl)quinazolin-3(4H)-yl]acetamide] | 100 to 500 | 93 |  | > 30000 | -23 |  | > 30000 | 15 |  |
